Key:
[1] = test system: ocular normotensive New Zealand white rabbits; test: Intraocular pressure (IOP) lowering effects in ocular normotensive New Zealand white rabbits (topical dosing, pneumatonometer); format: in vivo
[2] = test system: laser-induced ocular hypertensive non-human primates; test: Intraocular pressure (IOP) lowering effect in laser-induced ocular hypertensive non-human primates (topical dosing, pneumatonometer); format: in vivo
[3] = Example 26, 2.0% w/v, 30 μL topical

CCCOc1ccc(S(=O)(=O)N2CCN(CCO[N+](=O)[O-])CC2)cc1-c1nc2c(CCC)cn(CC)c2c(=O)[nH]1 [PDE5 nitrate ester, 2-(4-(3-(5-ethyl-4-oxo-7-propyl-4,5-dihydro-3H-pyrrolo[3,2-d]pyrimidin-2-yl)-4-propoxyphenylsulfonyl)piperazin-1-yl)ethyl Nitrate, reference compound]
IOP change (mmHg) E180 min ([1]; Example 25, Table 4, 180 min post-dosing, topical, 0.5 μmoles/eye, mean±SEM n=6-9): 0.3 ± 0.8 mmHg
time post dosing of Emax ([1]; Example 25, Table 4, topical, 0.5 μmoles/eye): 60 min
IOP change (mmHg) Emax ([1]; Example 25, Table 4, topical, 0.5 μmoles/eye, change versus basal and vehicle, mean±SEM n=6-9): −2.6 ± 0.5 mmHg

CCCOc1ccc(S(=O)(=O)N2CCN(CCO)CC2)cc1-c1nc2c(CCC)cn(CC)c2c(=O)[nH]1 [Mirodenafil, reference compound]
IOP change (mmHg) E300 min ([1]; Example 24, Table 3, 300 min post-dosing, topical 50 μL, 0.5 μmoles/eye (each compound), mean±SEM n=6-9): −1.46 ± 0.79 mmHg
time post-dosing of Emax ([1]; Example 24, Table 3, topical 50 μL, 0.5 μmoles/eye (each compound)): 120 min
IOP change (mmHg) Emax ([1]; Example 24, Table 3, topical 50 μL, 0.5 μmoles/eye (each compound), change versus basal and vehicle, mean±SEM n=6-9): −3.68 ± 0.89 mmHg
IOP change (mmHg) E300 min ([2]; Example 22, Table 1, 300 min post-dose, topical 30 μL, 0.48 μmoles/eye (1.17 μmoles/eye for (IIIg)-OH), mean±SEM n=13): −3.4 ± 2.3 mmHg
time post-dosing of Emax ([2]; Example 22, Table 1, topical 30 μL, 0.48 μmoles/eye (1.17 μmoles/eye for (IIIg)-OH)): 180 min
IOP change (mmHg) Emax ([2]; Example 22, Table 1, topical 30 μL, 0.48 μmoles/eye (1.17 μmoles/eye for (IIIg)-OH), change versus basal and vehicle, mean±SEM n=13): −5.0 ± 2.1 mmHg
IOP change (mmHg) 30 min ([2]; Example 27, Table 6, 0.31 μmoles/eye (each compound), 30 μL topical, 30 min post-dose, mean±SEM n=13): −2.2 ± 1.4 mmHg
IOP change (mmHg) 60 min ([2]; Example 27, Table 6, 0.31 μmoles/eye (each compound), 30 μL topical, 60 min post-dose, mean±SEM n=13): −4.1 ± 1.5 mmHg
IOP change (mmHg) 180 min ([2]; Example 27, Table 6, 0.31 μmoles/eye (each compound), 30 μL topical, 180 min post-dose, mean±SEM n=13): −3.8 ± 1.0 mmHg
IOP change (mmHg) 300 min ([2]; Example 27, Table 6, 0.31 μmoles/eye (each compound), 30 μL topical, 300 min post-dose, mean±SEM n=13): −2.2 ± 1.1 mmHg
IOP change (mmHg) 1440 min ([2]; Example 27, Table 6, 0.31 μmoles/eye (each compound), 30 μL topical, 1440 min post-dose, mean±SEM n=13): −1.0 ± 1.1 mmHg

O=C(O)CCCCCO[N+](=O)[O-] [(IIIa)-OH, 6-(nitrooxy)hexanoic acid]
IOP change (mmHg) E480 ([2]; in vivo): −2.7±1.5 mmHg
IOP change (mmHg) Emax ([2]; in vivo): −5.2±1.0 mmHg

COc1ccc(CNc2nc(N3CCC[C@H]3COC(=O)CCCCCO[N+](=O)[O-])ncc2C(=O)NCc2ncccn2)cc1Cl.O=C(O)CC(O)(CC(=O)O)C(=O)O [Compound (9)-citrate salt, (S)-(1-(4-(3-chloro-4-methoxybenzylamino)-5-(pyrimidin-2-ylmethylcarbamoyl)pyrimidin-2-yl)pyrrolidin-2-yl)methyl 6-(nitrooxy)hexanoate 2-hydroxypropane-1,2,3-tricarboxylate]
IOP change (mmHg) E480 ([2]; in vivo): −6.0±2.1 mmHg
IOP change (mmHg) Emax ([2]; in vivo): −6.0±2.1 mmHg

COc1ccc(CNc2nc(N3CCC[C@H]3COC(=O)CCOC[C@@H](CO[N+](=O)[O-])O[N+](=O)[O-])ncc2C(=O)NCc2ncccn2)cc1Cl.O=C(O)CC(O)(CC(=O)O)C(=O)O [Compound (12)-(2S)-citrate salt, ((S)-1-(4-(3-chloro-4-methoxybenzylamino)-5-(pyrimidin-2-ylmethylcarbamoyl)pyrimidin-2-yl)pyrrolidin-2-yl)methyl 3-((S)-2,3-bis(nitrooxy)propoxy)propanoate 2-hydroxypropane-1,2,3-tricarboxylate]
IOP change (mmHg) 30 min ([1]; rabbit, in vivo): −5.6 ± 0.9 mmHg
IOP change (mmHg) 60 min ([1]; rabbit, in vivo): −3.9 ± 1.0 mmHg
IOP change (mmHg) 120 min ([1]; rabbit, in vivo): −2.4 ± 0.8 mmHg

COc1ccc(CNc2nc(N3CCC[C@H]3COC(=O)CCCCCO[N+](=O)[O-])ncc2C(=O)NCc2ncccn2)cc1Cl.O=C(O)/C=C/C(=O)O [Compound (9)-fumarate salt, (S)-(1-(4-(3-chloro-4-methoxybenzylamino)-5-(pyrimidin-2-ylmethylcarbamoyl)pyrimidin-2-yl)pyrrolidin-2-yl)methyl 6-(nitrooxy)hexanoate Fumarate]
IOP change (mmHg) 30 min ([2]; Example 26, Table 5, 2.0% w/v, 30 μL topical, 30 min post-dosing, mean±SEM n=8 eye): −4.0 ± 1.3 mmHg
IOP change (mmHg) 60 min ([2]; Example 26, Table 5, 2.0% w/v, 30 μL topical, 60 min post-dosing, mean±SEM n=8 eye): −3.5 ± 1.6 mmHg
IOP change (mmHg) 300 min ([2]; Example 26, Table 5, 2.0% w/v, 30 μL topical, 300 min post-dosing, mean±SEM n=8 eye): −4.1 ± 2.7 mmHg
IOP change (mmHg) 1440 min ([2]; Example 26, Table 5, 2.0% w/v, 30 μL topical, 1440 min (24 hours) post-dosing, mean±SEM n=8 eye, Fumarate): −2.8±2.0 mmHg
maximum intraocular pressure-lowering efficacy, Emax [2, 3]: −4.1±2.7 mmHg
time of Emax [2, 3]: 300 min

CCCOc1ccc(S(=O)(=O)N2CCN(CCOC(=O)CCOC[C@@H](CO[N+](=O)[O-])O[N+](=O)[O-])CC2)cc1-c1nc2c(CCC)cn(CC)c2c(=O)[nH]1.O=C(O)CC(O)(CC(=O)O)C(=O)O [Compound (1)-(2S)-citrate salt, (S)-2-(4-(3-(5-ethyl-4-oxo-7-propyl-4,5-dihydro-3H-pyrrolo[3,2-d]pyrimidin-2-yl)-4-propoxyphenylsulfonyl)piperazin-1-yl)ethyl 3-[2,3-bis(nitrooxy)propoxy]propanoate citrate]
IOP change (mmHg) E180 min ([1]; rabbit, in vivo): −1.8 ± 0.8 mmHg
IOP change (mmHg) Emax ([1]; rabbit, in vivo): −3.8 ± 0.5 (60 min) mmHg
IOP change at Emax ([1]; rabbit, in vivo): −3.8 ± 0.5 (60 min)
IOP change (mmHg) 30 min ([2]; in vivo): −4.0 ± 0.9 mmHg
IOP change (mmHg) 60 min ([2]; in vivo): −5.3 ± 1.0 mmHg
IOP change (mmHg) 180 min ([2]; in vivo): −4.9 ± 1.5 mmHg
IOP change (mmHg) 300 min ([2]; in vivo): −4.4 ± 0.9 mmHg
IOP change (mmHg) 1440 min ([2]; in vivo): −2.6 ± 1.3 mmHg
IOP change (mmHg) E300 min ([2]; in vivo): −5.3 ± 1.9 mmHg
IOP change (mmHg) Emax ([2]; in vivo): −7.0 ± 0.9 (60 min) mmHg
